Measurements taken from PMC4180209 (Arteriosclerosis, thrombosis, and vascular biology, 2014).
Like-named read-outs stand apart in the source and are kept apart here.

Tests used:
platelet αIIbβ3 [1] = biological target: T1, platelet αIIbβ3 (Homo sapiens, UniProt P05106+P08514); settings: cited from earlier work
[2] = test system: human ADP-induced platelet aggregation; settings: cited from earlier work
αIIbβ3 [3] = biological target: T2, αIIbβ3 (Homo sapiens, UniProt P05106+P08514); settings: cited from earlier work
T2 sequence (P08514 32-887 limits assumed): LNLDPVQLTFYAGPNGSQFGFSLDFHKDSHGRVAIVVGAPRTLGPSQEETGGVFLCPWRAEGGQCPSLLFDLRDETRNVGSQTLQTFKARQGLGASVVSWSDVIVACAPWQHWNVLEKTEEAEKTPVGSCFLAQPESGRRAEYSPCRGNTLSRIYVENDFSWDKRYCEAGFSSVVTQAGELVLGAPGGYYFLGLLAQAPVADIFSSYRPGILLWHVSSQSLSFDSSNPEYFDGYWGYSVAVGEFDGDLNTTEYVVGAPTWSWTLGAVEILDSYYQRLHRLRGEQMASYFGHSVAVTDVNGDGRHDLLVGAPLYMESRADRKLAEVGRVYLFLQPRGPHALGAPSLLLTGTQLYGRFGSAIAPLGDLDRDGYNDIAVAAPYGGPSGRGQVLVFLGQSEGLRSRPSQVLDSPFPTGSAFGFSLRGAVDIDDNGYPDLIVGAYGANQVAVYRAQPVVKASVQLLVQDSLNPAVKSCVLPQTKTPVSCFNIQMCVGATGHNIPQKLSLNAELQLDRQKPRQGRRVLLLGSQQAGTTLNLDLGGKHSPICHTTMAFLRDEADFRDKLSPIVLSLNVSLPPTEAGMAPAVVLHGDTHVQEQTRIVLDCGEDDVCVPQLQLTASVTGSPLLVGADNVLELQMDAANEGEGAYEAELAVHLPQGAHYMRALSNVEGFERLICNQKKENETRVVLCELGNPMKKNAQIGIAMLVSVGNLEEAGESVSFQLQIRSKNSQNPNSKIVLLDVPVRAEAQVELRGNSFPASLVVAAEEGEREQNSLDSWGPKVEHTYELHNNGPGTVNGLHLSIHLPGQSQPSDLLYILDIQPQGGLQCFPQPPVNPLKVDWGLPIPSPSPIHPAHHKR
T2 sequence (P08514 891-1039 partner limits assumed): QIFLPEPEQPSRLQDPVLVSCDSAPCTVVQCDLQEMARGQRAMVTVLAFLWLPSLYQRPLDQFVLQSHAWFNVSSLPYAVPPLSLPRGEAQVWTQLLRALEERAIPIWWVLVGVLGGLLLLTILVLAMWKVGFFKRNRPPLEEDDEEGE
T2 sequence (P05106 27-788): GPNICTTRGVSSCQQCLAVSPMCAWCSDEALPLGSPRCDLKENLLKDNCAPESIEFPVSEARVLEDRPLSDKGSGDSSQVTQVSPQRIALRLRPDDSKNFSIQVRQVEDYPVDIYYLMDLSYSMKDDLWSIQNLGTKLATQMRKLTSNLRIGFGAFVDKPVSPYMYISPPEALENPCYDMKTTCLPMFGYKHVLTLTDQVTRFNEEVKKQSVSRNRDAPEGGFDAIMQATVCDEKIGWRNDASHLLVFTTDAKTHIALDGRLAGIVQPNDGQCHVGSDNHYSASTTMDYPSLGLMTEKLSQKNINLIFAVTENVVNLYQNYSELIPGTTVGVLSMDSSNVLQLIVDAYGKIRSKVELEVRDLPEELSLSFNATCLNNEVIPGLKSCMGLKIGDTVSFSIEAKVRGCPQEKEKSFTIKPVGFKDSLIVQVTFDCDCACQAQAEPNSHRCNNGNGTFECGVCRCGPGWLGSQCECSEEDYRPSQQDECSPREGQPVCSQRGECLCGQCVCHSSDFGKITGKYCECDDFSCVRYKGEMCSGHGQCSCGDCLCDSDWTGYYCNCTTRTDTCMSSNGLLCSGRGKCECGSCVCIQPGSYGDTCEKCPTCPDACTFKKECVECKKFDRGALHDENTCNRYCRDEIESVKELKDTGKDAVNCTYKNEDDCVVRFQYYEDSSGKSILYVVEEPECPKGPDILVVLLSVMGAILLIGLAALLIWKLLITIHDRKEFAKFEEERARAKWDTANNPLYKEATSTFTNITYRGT

αIIbβ3 [4] = biological target: T2, αIIbβ3; experiment: Adhesion of HEK293 cells expressing αIIbβ3 to fibrinogen; type: cell-based; settings: for inhibition of binding of cells expressing αIIbβ3 to fibrinogen: HEK293 cells, RUC-2 100 µM, RUC-4 300 µM; for Specificity for αIIbβ3 vs αVβ3: αIIbβ3 cells to fibrinogen vs αVβ3 cells to vitronectin
[5] = test system: platelets of mice expressing hαIIb/mβ3; experiment: ADP-induced platelet aggregation after dosing of hαIIb/mβ3 mice; type: in vivo
[6] = Plasma concentrations in hαIIb/mβ3 mice; type: in vivo; settings: exception of an outlier value
murine αIIbβ3 [7] = biological target: T3, murine αIIbβ3 (Mus musculus, UniProt O54890+Q9QUM0); experiment: Reactivity with murine platelets / inhibition of murine αIIbβ3; type: cell-based
T3 sequence (Q9QUM0 32-1033): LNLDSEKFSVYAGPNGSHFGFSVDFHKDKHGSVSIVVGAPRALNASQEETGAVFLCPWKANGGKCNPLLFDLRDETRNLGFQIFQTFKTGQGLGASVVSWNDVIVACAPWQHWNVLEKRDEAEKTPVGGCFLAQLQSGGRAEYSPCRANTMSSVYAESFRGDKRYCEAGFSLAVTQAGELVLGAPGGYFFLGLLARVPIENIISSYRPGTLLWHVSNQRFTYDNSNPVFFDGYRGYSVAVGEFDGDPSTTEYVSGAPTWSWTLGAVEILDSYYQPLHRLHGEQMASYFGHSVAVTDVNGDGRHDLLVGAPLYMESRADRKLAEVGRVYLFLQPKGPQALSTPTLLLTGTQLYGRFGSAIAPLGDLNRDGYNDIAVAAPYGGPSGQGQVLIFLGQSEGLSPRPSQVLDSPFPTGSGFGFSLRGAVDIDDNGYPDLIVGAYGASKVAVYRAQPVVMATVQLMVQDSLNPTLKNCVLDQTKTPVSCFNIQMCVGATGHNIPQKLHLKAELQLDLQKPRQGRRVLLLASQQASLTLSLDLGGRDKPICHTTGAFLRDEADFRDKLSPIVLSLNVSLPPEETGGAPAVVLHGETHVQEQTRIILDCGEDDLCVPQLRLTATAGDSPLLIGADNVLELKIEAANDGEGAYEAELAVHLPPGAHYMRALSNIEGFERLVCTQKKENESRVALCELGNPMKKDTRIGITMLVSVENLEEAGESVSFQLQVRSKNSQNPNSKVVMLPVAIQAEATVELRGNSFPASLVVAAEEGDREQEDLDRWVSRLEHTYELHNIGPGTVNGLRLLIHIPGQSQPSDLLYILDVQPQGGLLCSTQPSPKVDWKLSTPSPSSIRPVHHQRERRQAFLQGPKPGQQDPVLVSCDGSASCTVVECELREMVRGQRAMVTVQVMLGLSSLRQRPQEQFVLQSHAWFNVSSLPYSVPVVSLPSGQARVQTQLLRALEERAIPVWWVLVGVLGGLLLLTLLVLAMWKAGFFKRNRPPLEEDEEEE
T3 sequence (O54890 26-787): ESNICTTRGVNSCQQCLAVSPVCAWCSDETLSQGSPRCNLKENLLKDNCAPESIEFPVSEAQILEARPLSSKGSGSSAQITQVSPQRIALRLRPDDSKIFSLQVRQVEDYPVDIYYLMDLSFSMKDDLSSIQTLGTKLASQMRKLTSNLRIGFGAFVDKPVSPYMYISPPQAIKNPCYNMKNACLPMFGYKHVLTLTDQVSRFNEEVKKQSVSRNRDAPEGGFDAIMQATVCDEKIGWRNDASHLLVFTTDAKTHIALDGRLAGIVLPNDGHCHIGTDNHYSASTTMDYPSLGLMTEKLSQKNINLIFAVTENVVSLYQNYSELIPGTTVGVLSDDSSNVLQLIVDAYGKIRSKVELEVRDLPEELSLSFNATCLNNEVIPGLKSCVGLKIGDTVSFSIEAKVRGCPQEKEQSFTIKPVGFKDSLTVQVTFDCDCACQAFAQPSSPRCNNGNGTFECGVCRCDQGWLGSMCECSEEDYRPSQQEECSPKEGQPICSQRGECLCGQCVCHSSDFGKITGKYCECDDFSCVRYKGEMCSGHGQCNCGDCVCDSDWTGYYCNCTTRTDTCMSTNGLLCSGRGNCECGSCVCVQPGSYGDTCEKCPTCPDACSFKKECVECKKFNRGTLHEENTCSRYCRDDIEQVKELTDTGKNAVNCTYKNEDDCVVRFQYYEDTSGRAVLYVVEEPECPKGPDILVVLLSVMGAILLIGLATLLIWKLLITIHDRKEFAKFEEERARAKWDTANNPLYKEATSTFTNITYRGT

hαIIb/mβ3 mice = experiment: FeCl3 murine carotid artery thrombosis model; type: in vivo; settings: for platelet counts: hαIIb/mβ3 mice
αIIbβ3 [8] = biological target: T2, αIIbβ3; experiment: Binding of ligand-induced binding site mAb AP5 to washed platelets; type: cell-based; settings: for induction of increased binding of mAb AP5 (LIBS epitope in β3 PSI domain): eptifibatide 10 µM, RUC-2 100 µM, RUC-4 100 µM
platelet αIIbβ3 [9] = biological target: T1, platelet αIIbβ3; experiment: Priming platelet αIIbβ3 to bind fibrinogen; type: cell-based
murine αIIbβ3 [10] = biological target: T3, murine αIIbβ3; settings: 1 µM; cited from earlier work
[11] = Solubility in aqueous buffer; type: physicochemical
αVβ3 = αVβ3 (Homo sapiens, UniProt P05106+P06756); experiment: Adhesion of HEK293 cells expressing αVβ3 to vitronectin; type: cell-based; settings: RUC-2 100 µM, RUC-4 300 µM
Chain of αVβ3 (P06756 31-889 limits assumed): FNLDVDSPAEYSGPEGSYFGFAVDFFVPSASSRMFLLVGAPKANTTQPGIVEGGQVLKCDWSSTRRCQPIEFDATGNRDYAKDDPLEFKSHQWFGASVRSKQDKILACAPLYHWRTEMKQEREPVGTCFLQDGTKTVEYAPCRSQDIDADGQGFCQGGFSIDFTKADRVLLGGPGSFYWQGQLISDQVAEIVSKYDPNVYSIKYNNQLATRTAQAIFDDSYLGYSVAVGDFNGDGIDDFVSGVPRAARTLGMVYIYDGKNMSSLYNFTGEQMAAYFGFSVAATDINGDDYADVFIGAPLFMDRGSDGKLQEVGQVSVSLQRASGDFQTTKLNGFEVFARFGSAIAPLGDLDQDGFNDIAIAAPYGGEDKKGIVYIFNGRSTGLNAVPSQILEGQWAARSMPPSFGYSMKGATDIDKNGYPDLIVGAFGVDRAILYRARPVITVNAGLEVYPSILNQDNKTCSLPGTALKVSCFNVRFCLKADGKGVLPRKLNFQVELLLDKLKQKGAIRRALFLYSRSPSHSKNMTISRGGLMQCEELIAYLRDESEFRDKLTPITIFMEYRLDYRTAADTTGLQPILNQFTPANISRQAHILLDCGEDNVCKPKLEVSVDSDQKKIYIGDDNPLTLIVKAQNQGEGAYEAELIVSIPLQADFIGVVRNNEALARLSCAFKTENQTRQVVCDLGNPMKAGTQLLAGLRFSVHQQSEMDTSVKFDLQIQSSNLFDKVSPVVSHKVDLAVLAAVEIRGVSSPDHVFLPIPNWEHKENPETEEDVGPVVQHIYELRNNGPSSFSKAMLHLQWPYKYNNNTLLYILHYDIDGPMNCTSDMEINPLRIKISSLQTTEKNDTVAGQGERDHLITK
Chain of αVβ3 (P06756 891-1048 partner limits assumed): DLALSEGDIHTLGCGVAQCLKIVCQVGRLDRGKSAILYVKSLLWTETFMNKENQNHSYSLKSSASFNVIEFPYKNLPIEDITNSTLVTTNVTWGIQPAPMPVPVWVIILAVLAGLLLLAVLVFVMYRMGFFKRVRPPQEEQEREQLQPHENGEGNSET
Chain of αVβ3 (P05106 27-788): as the sequence (P05106 27-788) above

[12] = test system: human ADP-induced platelet aggregation; experiment: ADP-induced platelet aggregation in platelet-rich plasma; type: cell-based; settings: read-out: IC50 ADP-induced platelet aggregation; 5 µM ADP; citrated platelet-rich plasma; n=8
[13] = cited from earlier work
hαIIb/mβ3 platelets = settings: read-out: IC50 for hαIIb/mβ3 platelets; data not shown, n=3
human platelets = type: in vivo, mice; settings: RUC-4 IV 1.5 mg/kg; laser injury, cremasteric arterioles; intravital microscopy
[14] = Clinical evaluation and platelet counts in M. fascicularis
[15] = test system: ADP (20 µM)-induced platelet aggregation; experiment: ADP-induced platelet aggregation after IM administration to M. fascicularis; type: in vivo
[16] = RUC-2 0.39 mg/kg IP, 20 µM ADP, hαIIb/mβ3 mice
[17] = RUC-4 1.2 mg/kg IM, 20 µM ADP, hαIIb/mβ3 mice
[18] = IM 1.9 and 3.85 mg/kg, non-human primates

T1 sequence (P08514 32-887 limits assumed): as the sequence (P08514 32-887 limits assumed) above
T1 sequence (P08514 891-1039 partner limits assumed): as the sequence (P08514 891-1039 partner limits assumed) above
T1 sequence (P05106 27-788): as the sequence (P05106 27-788) above

CCc1nn2c(=O)cc(N3CCNCC3)nc2s1 [RUC-1]
priming of the receptor to bind the ligand fibrinogen (platelet αIIbβ3 [1]): neither RUC-1 nor RUC-2 primed the receptor
IC50 [2]: 13000 nM
conformational changes in β3 detectable by a conformation-specific monoclonal antibody or by electron microscopy (αIIbβ3 [3]): nor did they induce conformational changes in β3

NCC(=O)Nc1cccc(-c2nn3c(=O)cc(N4CCNCC4)nc3s2)c1 [RUC-2]
priming of the receptor to bind the ligand fibrinogen (platelet αIIbβ3 [1]): neither RUC-1 nor RUC-2 primed the receptor
IC50 [2]: ~90 nM
fold more potent than RUC-1 [2]: ~ 100 fold
inhibition of binding of cells expressing αIIbβ3 to fibrinogen (αIIbβ3 [4]): inhibiting the binding of cells expressing αIIbβ3 to fibrinogen
Specificity for αIIbβ3 vs αVβ3 (αIIbβ3 [4]): Yes
time at which return of the aggregation response begins [5, 16]: 45 min
time to complete inhibition of platelet aggregation [5, 16]: ≤ 15 min
time to complete inhibition of platelet aggregation ([5]; RUC-2 3.85 mg/kg IP, 20 µM ADP, hαIIb/mβ3 mice): ≤ 15 min
platelet aggregation at the 45 minute time point ([5]; RUC-2 3.85 mg/kg IP): complete inhibition of platelet aggregation in all animals
time to maximum plasma concentration ([6]; RUC-2 IP): 15 min
Reactivity with murine platelets (murine αIIbβ3 [7]): No
mice protected from vaso-occlusion (hαIIb/mβ3 mice; RUC-2 3.85 mg/kg IP, 20% FeCl3 for 3 minutes, 20 minutes after dosing): 8/8
platelet counts (hαIIb/mβ3 mice; RUC-2 3.85 mg/kg IP): 677±132 × 10^3 platelets per µl
Ability to Induce conformational changes in αIIbβ3 identifiable by LIBS mAb (αIIbβ3 [8]): No
induction of increased binding of mAb AP5 (LIBS epitope in β3 PSI domain) (αIIbβ3 [8]): did not induce increased binding
Ability to prime αIIbβ3 to bind fibrinogen (platelet αIIbβ3 [9]): No
inhibition of murine αIIbβ3 (murine αIIbβ3 [10]): does not inhibit
conformational changes in β3 detectable by a conformation-specific monoclonal antibody or by electron microscopy (αIIbβ3 [3]): nor did they induce conformational changes in β3
Solubility in aqueous buffer at pH 7.4 [11]: 0.068–0.092 mg/ml
inhibition of binding of cells expressing αVβ3 to vitronectin (αVβ3): inability to inhibit
IC50 [12]: 95 ± 20 nM

NCC(=O)Nc1cncc(-c2nn3c(=O)cc(N4CCNCC4)nc3s2)c1 [RUC-4]
inhibition of binding of cells expressing αIIbβ3 to fibrinogen (αIIbβ3 [4]): inhibiting the binding of cells expressing αIIbβ3 to fibrinogen
Specificity for αIIbβ3 vs αVβ3 (αIIbβ3 [4]): Yes
time of complete inhibition of platelet aggregation [5, 17]: 5 min
time of partial return of aggregation [5, 17]: 4 h
platelet aggregation at the 45 minute time point ([5]; RUC-4 1.2 mg/kg IM): complete inhibition of platelet aggregation in all animals
fold more soluble than RUC-2 [13]: more than 500 fold
IC50 (hαIIb/mβ3 platelets): ~10 nM
time to maximum plasma concentration ([6]; RUC-4 IM): 5 min
decrease in thrombus formation (human platelets): > 80%
Reactivity with murine platelets (murine αIIbβ3 [7]): No
inhibition of murine αIIbβ3 (murine αIIbβ3 [7]; data not shown): shares this property
mice developing occlusion during the experiment (hαIIb/mβ3 mice; RUC-4 1.2 mg/kg IM, 20% FeCl3 for 3 minutes, 20 minutes after dosing): 2/11
platelet counts (hαIIb/mβ3 mice; RUC-4 1.2 mg/kg IM): 674±176 × 10^3 platelets per µl
Ability to Induce conformational changes in αIIbβ3 identifiable by LIBS mAb (αIIbβ3 [8]): No
induction of increased binding of mAb AP5 (LIBS epitope in β3 PSI domain) (αIIbβ3 [8]): did not induce increased binding
Ability to prime αIIbβ3 to bind fibrinogen (platelet αIIbβ3 [9]): No
bleeding observation ([14]; 3.85 mg/kg IM): Transient gum bleeding
clinical evaluation (tolerability) ([14]; IM 3.86, 1.93 and 1.0 mg/kg): well tolerated
platelet counts throughout the 24 hour period ([14]; IM 3.86, 1.93 and 1.0 mg/kg, 24 hour): remained stable
fold more soluble than RUC-2 in aqueous buffer at neutral pH ([11]; neutral pH): more than 500 fold
Solubility in aqueous buffer at pH 7.4 [11]: 60–80 mg/ml
inhibition of binding of cells expressing αVβ3 to vitronectin (αVβ3): inability to inhibit
IC50 [12]: 57 ± 10 nM
time at which return toward normal aggregation is evident ([15]; 1.0 mg/kg IM, 20 µM ADP): 2 h
inhibition of aggregation at 15 minutes ([15]; 1.0 mg/kg IM, 15 minutes): partial
time at which aggregation response began to return to normal ([15]; 1.93 mg/kg IM, 20 µM ADP): ≤ 4.5 h
time to complete inhibition of aggregation ([15]; 1.93 mg/kg IM, 20 µM ADP): ≤ 15 min
time to complete inhibition of aggregation ([15]; 3.86 mg/kg IM, 20 µM ADP): ≤ 15 min
dose-dependent return of platelet aggregation after [15, 18]: 4.5 to 24 h
time to complete inhibition of platelet aggregation [15, 18]: ≤ 15 min

CCCCS(=O)(=O)N[C@@H](Cc1ccc(OCCCCC2CCNCC2)cc1)C(=O)O [tirofiban, reference compound]
priming of the receptor to bind the ligand fibrinogen (platelet αIIbβ3 [1]): unlike eptifibatide and tirofiban, neither RUC-1 nor RUC-2 primed the receptor

eptifibatide [reference compound]
priming of the receptor to bind the ligand fibrinogen (platelet αIIbβ3 [1]): unlike eptifibatide and tirofiban, neither RUC-1 nor RUC-2 primed the receptor
fold higher affinity for αIIbβ3 than RUC-4 as judged by IC50 for platelet aggregation [2]: more than 4 fold
